In patent US20090076122A1, “PARP Modulators and Treatment of Cancer” (BIPAR SCIENCES, INC., priority 2005, published 2009):

Columns and labels:
[1] = target: T1, PARP-1 activity of Jurkat cell nuclei (Homo sapiens, UniProt P09874); assay: Effect of BCNU on the ATP sensitivity of PARP-1 activity of Jurkat cell nuclei; assay type: biochemical; conditions: nuclei pre-incubated with 400 nM BCNU for 30 minutes; FIG. 3
T1 construct: endogenous in cells; host or cells: Jurkat cell nuclei
Procedure: Nuclei equivalent to 2×10^5 Jurkat cells are pre incubated in the presence of various concentrations of ATP. Then PARP activities are assayed by admixing biotinylated-NAD (5 μM final conc.) and incubating for ten minutes. After separating the proteins on a 8% SDS-PAGE gel, the nitrocellulose-blotted, labeled proteins are detected by incubating with streptavidine-HPO complex (1 μg/ml) and by fluorography. Triplicate results are expressed as densitometric units. Experiments in triplicate are carried out as described in FIG. 2, with the exception that pre incubation is done with 400 nM of BCNU for 30 minutes.

[2] = target: T1, PARP-1 activity of Jurkat cell nuclei; assay: Effect of ATP on the PARP-1 activity of Jurkat cell nuclei; assay type: biochemical; conditions: 1 mM ATP; isolated Jurkat cell nuclei; FIG. 2
Procedure: Poly(ADP-ribose)glycohydrolase (PARG) is purchased from Biomol or Alexis Co, which enzymes are equal in performance. Jurkat cells are cultured as reported (Buday et al. (1996) J Biol Chem 271:6159-6163) and nuclei are prepared by a published method (Smirnova et al. (2000) J Biol Chem 275:9377-9384). Enzymatic assays for PARP-1 are performed as published (deMurcia (2000) From DNA-damage and Stress Signalling to Cell Death: Poly ADP-ribosylation Reactions). PARG activity is analyzed with polyADP-ribosylated PARP-1 as substrate, containing long chains synthesized with spermine as cofactor (Kun et al. (2004) Biochemistry 43:210-216), or short chains where the cofactor is histone H1. The polyADP-ribose is labeled either with 3H or by biotinylated-NAD. PARG activity is quantitatively measured either by assaying the liberated 3H-ADP-ribose by TLC (Kirsten et al. (1991) Exp Cell Res 194:1-8) (chromatography carried out on PEI-cellulose sheets with 0.9 M acetic acid and 0.3 M LiCl as solvent) or by immunoassay of the remaining biotinylated (ADP-ribose)n (Bakondi et al. (2004) Exp Dermatol 13:170-178). All other reagents are of highest analytical purity. […] After separating the proteins on a 8% SDS-PAGE gel, the nitrocellulose-blotted, labeled proteins are detected by incubating with streptavidine-HPO complex (1 μg/ml) and by fluorography. Triplicate results are expressed as densitometric units.

[3] = target: T2, PARG activity of Jurkat cell nuclear extract (Homo sapiens, UniProt Q86W56); assay: Effect of ATP on the glycohydrolase activity of Jurkat cell nuclear extract; assay type: biochemical; conditions: 8 mM ATP; polyADP-ribosylated PARP-1 with long polymers (50 ADP-ribose units); FIG. 4
T2 construct: endogenous in cells; host or cells: Jurkat cell nuclear extract
T2 sequence (Q86W56 whole entry): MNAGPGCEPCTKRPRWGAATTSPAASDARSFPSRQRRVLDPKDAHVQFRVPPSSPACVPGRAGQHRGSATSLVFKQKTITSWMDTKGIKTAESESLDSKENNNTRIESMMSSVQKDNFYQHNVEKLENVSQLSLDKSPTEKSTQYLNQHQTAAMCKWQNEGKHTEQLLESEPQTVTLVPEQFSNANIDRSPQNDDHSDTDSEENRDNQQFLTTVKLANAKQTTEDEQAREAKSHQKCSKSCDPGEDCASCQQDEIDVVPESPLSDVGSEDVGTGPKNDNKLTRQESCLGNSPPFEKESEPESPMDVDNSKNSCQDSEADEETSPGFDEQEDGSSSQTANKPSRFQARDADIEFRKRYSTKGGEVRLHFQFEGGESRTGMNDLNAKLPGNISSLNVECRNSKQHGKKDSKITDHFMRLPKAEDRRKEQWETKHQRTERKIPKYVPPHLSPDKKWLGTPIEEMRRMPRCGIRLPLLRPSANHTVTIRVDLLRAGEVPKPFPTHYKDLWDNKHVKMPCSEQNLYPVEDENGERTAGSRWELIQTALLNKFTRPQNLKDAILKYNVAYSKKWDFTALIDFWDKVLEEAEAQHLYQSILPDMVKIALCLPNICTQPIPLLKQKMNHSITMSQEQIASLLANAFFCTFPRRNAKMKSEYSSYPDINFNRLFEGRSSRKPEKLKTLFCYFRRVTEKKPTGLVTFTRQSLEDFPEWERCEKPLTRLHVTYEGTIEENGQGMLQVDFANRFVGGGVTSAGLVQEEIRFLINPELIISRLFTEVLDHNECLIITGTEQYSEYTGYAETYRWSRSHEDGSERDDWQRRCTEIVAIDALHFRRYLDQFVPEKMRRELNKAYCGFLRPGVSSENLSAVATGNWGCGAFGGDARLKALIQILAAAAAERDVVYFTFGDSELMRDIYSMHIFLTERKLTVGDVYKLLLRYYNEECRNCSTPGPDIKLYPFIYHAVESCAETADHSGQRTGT
Procedure: Poly(ADP-ribose)glycohydrolase (PARG) is purchased from Biomol or Alexis Co, which enzymes are equal in performance. Jurkat cells are cultured as reported (Buday et al. (1996) J Biol Chem 271:6159-6163) and nuclei are prepared by a published method (Smirnova et al. (2000) J Biol Chem 275:9377-9384). Enzymatic assays for PARP-1 are performed as published (deMurcia (2000) From DNA-damage and Stress Signalling to Cell Death: Poly ADP-ribosylation Reactions). PARG activity is analyzed with polyADP-ribosylated PARP-1 as substrate, containing long chains synthesized with spermine as cofactor (Kun et al. (2004) Biochemistry 43:210-216), or short chains where the cofactor is histone H1. The polyADP-ribose is labeled either with 3H or by biotinylated-NAD. PARG activity is quantitatively measured either by assaying the liberated 3H-ADP-ribose by TLC (Kirsten et al. (1991) Exp Cell Res 194:1-8) (chromatography carried out on PEI-cellulose sheets with 0.9 M acetic acid and 0.3 M LiCl as solvent) or by immunoassay of the remaining biotinylated (ADP-ribose)n (Bakondi et al. (2004) Exp Dermatol 13:170-178). All other reagents are of highest analytical purity. Poly(ADP-ribosylated)-PARP-1 (2 μg protein is incubated with 50 μM of biotinylated-NAD as described above) and is attached to the walls of 96-well plates. ([…] et al. (1989) Nucl. Acids Res. 17:5404). […]

[4] = target: T3, PARP-1 arginine-34 mutant (R34G, Zn2+ finger 1) (Homo sapiens, UniProt P09874, R34G); assay: Enzymatic activity of arginine-34 (R34G) mutant PARP-1 with ATP; assay type: biochemical; conditions: arginine-34 replaced by glycine in Zn2+ finger 1; 200 μM NAD+, 3 mM spermine, pH 7.3; FIG. 1
T3 construct: made in house; host or cells: Sf9 (baculovirus)
T3 sequence (P09874 whole entry R34G): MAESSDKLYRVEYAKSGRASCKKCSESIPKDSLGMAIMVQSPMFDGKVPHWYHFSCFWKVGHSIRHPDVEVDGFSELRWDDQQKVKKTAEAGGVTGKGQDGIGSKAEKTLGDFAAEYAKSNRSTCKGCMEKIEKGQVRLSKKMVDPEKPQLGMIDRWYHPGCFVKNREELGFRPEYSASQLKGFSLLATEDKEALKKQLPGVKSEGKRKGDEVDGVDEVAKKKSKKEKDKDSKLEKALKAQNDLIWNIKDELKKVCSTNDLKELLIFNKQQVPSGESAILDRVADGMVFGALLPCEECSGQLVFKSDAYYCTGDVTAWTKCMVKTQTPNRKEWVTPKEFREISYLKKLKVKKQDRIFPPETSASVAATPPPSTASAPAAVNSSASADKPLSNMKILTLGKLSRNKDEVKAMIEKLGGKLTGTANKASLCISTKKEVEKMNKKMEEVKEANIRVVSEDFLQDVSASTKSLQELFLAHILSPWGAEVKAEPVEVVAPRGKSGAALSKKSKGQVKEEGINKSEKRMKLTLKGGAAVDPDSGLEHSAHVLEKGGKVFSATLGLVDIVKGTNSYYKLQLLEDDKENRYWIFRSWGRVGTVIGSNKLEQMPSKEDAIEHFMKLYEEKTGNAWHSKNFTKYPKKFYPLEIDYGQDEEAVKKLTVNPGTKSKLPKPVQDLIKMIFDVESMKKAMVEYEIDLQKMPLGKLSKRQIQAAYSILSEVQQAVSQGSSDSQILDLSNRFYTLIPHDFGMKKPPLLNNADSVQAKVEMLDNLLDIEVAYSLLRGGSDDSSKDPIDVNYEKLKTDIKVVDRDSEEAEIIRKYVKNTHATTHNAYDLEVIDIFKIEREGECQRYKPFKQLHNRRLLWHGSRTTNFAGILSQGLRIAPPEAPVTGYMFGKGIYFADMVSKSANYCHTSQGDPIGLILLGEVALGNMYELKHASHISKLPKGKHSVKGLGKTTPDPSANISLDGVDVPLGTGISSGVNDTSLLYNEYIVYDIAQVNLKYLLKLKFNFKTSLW
From the text: (§1) PARP-1 is purified from calf thymus as reported earlier (Molinet et al. (1993) EMBO J. 12:2109-2117). Alternatively recombinant PARP-1 is isolated from Sodoptera Fugiperda (Sf9) cells infected with recombinant baculovirus, expressing the human PARP-1 gene, constructed according to the instructions of Pharmingen. The cDNA of the amino acid exchange mutant R34G and R138 il of PARP-1 is created by the mega primer method (Kannann et al. (1989) Nucl Acids Res 17:5404). The mutated gene is cloned into the transfer vector pV 1392 and the recombinant virus is generated by the Baculogold technology of Pharmigen. The mutated proteins are expressed in Sf9 cells, purified and assayed as reported (Huang et al. (2004) Biochemistry 43:217-223; Kirsten et al. (2004) Methods in Molecular Biology 287, Epigenetics Protocols 137-149).
(§2) Assays are carried out as described (Kun et al. (2004) Biochemistry, 43:210-216) in triplicate (200 μM 3H labeled NAD+, 28 dpm/pmol, 0.5 pmol PARP-1, 3 mM spermine, pH 7.3 t=7.5 min). Identical results are obtained when ATP is replaced by its non-hydrolysable analog (Kun et al. (2004) Biochemistry, 43:210-216).

[5] = target: T4, PARP-1 arginine-138 mutant (isoleucine, Zn2+ finger 2) (Homo sapiens, UniProt P09874, R138I); assay: Enzymatic activity of arginine-138 (R138I) mutant PARP-1 with ATP; assay type: biochemical; conditions: arginine-138 mutated to isoleucine in Zn2+ finger 2; FIG. 1
T4 construct: made in house; host or cells: Sf9 (baculovirus)
T4 sequence (P09874 whole entry R138I): as the sequence (P09874 whole entry R34G) above, with G34R, R138I counted along it
From the text: as §1, §2

purified PARG = assay: ATP sensitivity of purified PARG (PAR chain length, substrate concentration); assay type: biochemical; conditions: 45 minutes
Procedure: Poly(ADP-ribose)glycohydrolase (PARG) is purchased from Biomol or Alexis Co, which enzymes are equal in performance. Jurkat cells are cultured as reported (Buday et al. (1996) J Biol Chem 271:6159-6163) and nuclei are prepared by a published method (Smirnova et al. (2000) J Biol Chem 275:9377-9384). Enzymatic assays for PARP-1 are performed as published (deMurcia (2000) From DNA-damage and Stress Signalling to Cell Death: Poly ADP-ribosylation Reactions). PARG activity is analyzed with polyADP-ribosylated PARP-1 as substrate, containing long chains synthesized with spermine as cofactor (Kun et al. (2004) Biochemistry 43:210-216), or short chains where the cofactor is histone H1. The polyADP-ribose is labeled either with 3H or by biotinylated-NAD. PARG activity is quantitatively measured either by assaying the liberated 3H-ADP-ribose by TLC (Kirsten et al. (1991) Exp Cell Res 194:1-8) (chromatography carried out on PEI-cellulose sheets with 0.9 M acetic acid and 0.3 M LiCl as solvent) or by immunoassay of the remaining biotinylated (ADP-ribose)n (Bakondi et al. (2004) Exp Dermatol 13:170-178). All other reagents are of highest analytical purity. Short (Δ-Δ)- or long ([…]-[…])-chain PAR-PARP molecules are prepared as described in the methods and attached to the surface of assay wells. Purified PARG (15 mU/assay) is added to the wells in the presence of various concentrations of ATP and incubated for 45 minutes. The attached amount of polymers is determined in triplicate experiments (zero minute values for short chains were 0.5 OD, and 1.8 OD for long chain polymers). PARG (15 mU/assay) is incubated with various concentrations of 32P-PAR (long chain polymer) in the presence or absence of 6 mM of ATP for 45 minutes and the amount of liberated 32P-ADP-ribose is determined by TLC and liquid scintillation of the cut out portions of the plate located by autoradiography. Experiments are performed in triplicate.

solid tumor colon cancer = assay: Treatment of a subject suffering from solid tumor colon cancer; assay type: in vivo; conditions: orally or parenterally; after few days
Procedure: A subject suffering from solid tumor colon cancer is treated with a therapeutically effective amount of compound of formula
(§3) where the compound is administered orally or parenterally.

inflammation = assay: Treatment of a subject suffering from inflammation; assay type: in vivo; conditions: orally or parenterally; after few days
Procedure: A subject suffering from inflammation is treated with a therapeutically effective amount of compound of formula
as §3

CNS disease = assay: Treatment of a subject suffering from CNS disease; assay type: in vivo; conditions: orally or parenterally; after few days
Procedure: A subject suffering from CNS disease is treated with a therapeutically effective amount of compound of formula
as §3

T1 sequence (P09874 whole entry): as the sequence (P09874 whole entry R34G) above, with G34R counted along it

SMILES: Nc1ncnc2c1ncn2[C@@H]1O[C@H](COP(=O)(O)OP(=O)(O)OP(=O)(O)O)[C@@H](O)[C@H]1O [ATP]
- response to DNA damage by BCNU as assayed by PARP-1 activity, with externally added ATP [1]: completely removed
- inhibition of PARP-1 activity in nuclei [2]: 80%
- effect on PARG activity (decay of long PAR polymer) [3]: significantly accelerates
- inhibitory action of ATP on PARP-1 enzymatic activity [4]: abolished
- effect of the mutation on the inhibitory action of ATP on PARP-1 [5]: negligible effect
- exonucleotidase activity of PARG (liberation of ADP-ribose) (purified PARG; 6 mM ATP, long chain polymers as substrate, FIG. 6): activation
- acceleration of decay of longer ADP-ribose oligomers by PARG (purified PARG; long-chain PAR (average chain length 50 ADPR), PARG 15 mU/assay, FIG. 5): accelerated
- acceleration of degradation of short ADP-ribose oligomers by PARG (purified PARG; short-chain PAR, PARG 15 mU/assay, FIG. 5): not accelerated

SMILES: O=c1ccc2c(I)c(O)ccc2o1 [drawing 14]
- symptoms of the cancer (solid tumor colon cancer): markedly reduced

SMILES: O=c1ccc2c(I)c(O)ccc2o1 [drawing 20]
- symptoms of inflammation (inflammation): markedly reduced

SMILES: O=c1ccc2c(I)c(O)ccc2o1 [drawing 26]
- symptoms of CNS disease (CNS disease): markedly reduced
